The values that follow come from patent US4639509A, “[16,19-Di-alanine] calcitonin” (Armour Pharmaceutical Company, priority 1985, dated 1987).

Bridge positions count the residues as written; N and C are the ends. Peptide text beside a SMILES is read from it.

Test [1] concerns serum calcium concentration.
Procedure: Rats were divided into four groups of seven animals, and each group was assigned at random to a dose of standard or test solution. Low and high doses were chosen from the linear portion of the dose-responsive curve. For the salmon calcitonin standard, the values were 0.7 and 2.1 mcg. peptide/100 g. body weight (BW). This dose approximates 3 and 9 MU/100 g. BW. Peptides were given by subcutaneous injection (0.2 ml/100 g. BW) and blood was withdrawn 1 hour later for serum calcium determination. Sera are processed and analyzed within two hours of collection. Results were analyzed within two hours of collection.
For test [2] the following is noted: literature values; cited from earlier work.

Regarding `CC(C)C[C@H](NC(=O)[C@H](CCCCN)NC(=O)CNC(=O)[C@H](CC(C)C)NC(=O)[C@@H](NC(=O)[C@@H]1CSSC[C@H](N)C(=O)N[C@@H](CO)C(=O)N[C@@H](CC(N)=O)C(=O)N[C@@H](CC(C)C)C(=O)N[C@@H](CO)C(=O)N[C@@H]([C@@H](C)O)C(=O)N1)C(C)C)C(=O)N[C@@H](CO)C(=O)N[C@@H](CCC(N)=O)C(=O)N[C@@H](CCC(=O)O)C(=O)N[C@@H](C)C(=O)N[C@@H](Cc1c[nH]cn1)C(=O)N[C@@H](CCCCN)C(=O)N[C@@H](C)C(=O)N[C@@H](CCC(N)=O)C(=O)N[C@H](C(=O)N[C@@H](Cc1ccc(O)cc1)C(=O)N1CCC[C@H]1C(=O)N[C@@H](CCCNC(=N)N)C(=O)N[C@H](C(=O)N[C@@H](CC(N)=O)C(=O)N[C@H](C(=O)NCC(=O)N[C@@H](CO)C(=O)NCC(=O)N[C@H](C(=O)N1CCC[C@H]1C(N)=O)[C@@H](C)O)[C@@H](C)O)[C@@H](C)O)[C@@H](C)O` [[Di-Ala^16,19]SCT, [16,19-Di-Alanine]salmon calcitonin] (H-CSNLSTCVLGKLSQEAHKAQTYPRTNTGSGTP-NH2; disulfide 1-7), in test [1] (rat, in vivo, sc), the biological potency worked out at 7200 IU/mg.
Regarding `CC(C)C[C@H](NC(=O)[C@H](CCCCN)NC(=O)CNC(=O)[C@H](CC(C)C)NC(=O)[C@@H](NC(=O)[C@@H]1CSSC[C@H](N)C(=O)N[C@@H](CO)C(=O)N[C@@H](CC(N)=O)C(=O)N[C@@H](CC(C)C)C(=O)N[C@@H](CO)C(=O)N[C@@H]([C@@H](C)O)C(=O)N1)C(C)C)C(=O)N[C@@H](CO)C(=O)N[C@@H](CCC(N)=O)C(=O)N[C@@H](CCC(=O)O)C(=O)N[C@@H](CC(C)C)C(=O)N[C@@H](Cc1c[nH]cn1)C(=O)N[C@@H](CCCCN)C(=O)N[C@@H](CC(C)C)C(=O)N[C@@H](CCC(N)=O)C(=O)N[C@H](C(=O)N[C@@H](Cc1ccc(O)cc1)C(=O)N1CCC[C@H]1C(=O)N[C@@H](CCCNC(=N)N)C(=O)N[C@H](C(=O)N[C@@H](CC(N)=O)C(=O)N[C@H](C(=O)NCC(=O)N[C@@H](CO)C(=O)NCC(=O)N[C@H](C(=O)N1CCC[C@H]1C(N)=O)[C@@H](C)O)[C@@H](C)O)[C@@H](C)O)[C@@H](C)O` [standard salmon calcitonin, Salmon calcitonin], the “potency content of the standard” value in test [1] (standard used in the assay, independently determined) is reported as “greater than 4,000 IU/mg”.
“(1,7-α-L-amino-suberic acid)eel calcitonin”: the hypocalcemic potency result in test [2] is listed as “about 3400 Iu/mg”.
